Measured values: US20090048160A1, “Antimicrobial activity of bovine bactericidal/permeability-increasing protein (BPI)-derived peptides against Gram-negative bacterial mastitis isolates” (priority 2007, published 2009)
Converted amounts (≈) assume the structure as drawn. Where two headings read alike, the source gives them in different places.

Experiments:
Enterobacter cloacae = test: microbe, parasite or virus in culture; format: cell-based
Description: (§1) Bacterial isolates of Escherichia coli, Klebsiella pneumonia, Serratia marcescens, Pseudomonas aeruginosa, Enterobacter cloacae, and Enterobacter aerogenes, which were obtained from clinical cases of bovine mastitis, were used to assess the bactericidal activity of peptides in a broth microdilution assay. Isolates were obtained from repositories at Cornell University (gift of Dr. Y. H. Schukken; Quality Milk Production Services Program, Cornell University, Ithaca N.Y.) and the USDA Beltsville Agricultural Research Center. […] A. J. Bramley, Institute for Animal Health, Compton Laboratory, Newbury, England), which was originally isolated from a clinical case of mastitis ([…]. Dairy Res. 43: 205-211) was also used to assess the bactericidal activity of the peptides in biological fluids. Reference strains of E. coli (ATCC 25922) and Staphylococcus aureus (ATCC 29213) were obtained from a commercial source (American Type Culture Collection (ATCC), Manassas, Va.). To obtain fresh inoculums for evaluation, a sterile loop of each bacterial glycerol stock was streaked on a blood agar plate. After an overnight incubation at 35° C., a single uniform colony was picked and sub-passaged by streaking on a new blood agar plate and incubating the plate overnight at 35° C. To evaluate the antimicrobial activity of the peptides against various clinical mastitis bacterial isolates, the minimum inhibitory concentration (MIC) and the minimum bactericidal concentration (MBC) of these peptides against the isolates were determined using a standardized broth microdilution assay. In addition to the mastitis isolates, E. coli (ATCC 25922) and S. aureus (ATCC 29213) reference strains were evaluated. […] The assays were performed in accordance with Clinical and Laboratory Standards Institute (CLSI) [formerly National Committee for Clinical Laboratory Standards (NCCLS)] guidelines (National Committee for Clinical Laboratory Standards. 1999. Methods for Determining Bacterial Activity of Antimicrobial Agents: Approved Guideline. Wayne, Pa.; National Committee for Clinical Laboratory Standards. 2002. Performance Standards for Antimicrobial Disk and Dilution Susceptibility Tests for Bacteria Isolated from Animals: Approved Standard. 2nd Edition, Wayne, Pa.). […] The bacterial suspension was then diluted 100-fold in cation-adjusted Mueller-Hinton broth to reach a final inoculum concentration of 10^6 CFU/ml. […] A negative control column was included in the plate that included 100 μl of broth alone. The plates were incubated for 18 h at 35° C. with ambient air circulation and without shaking. The wells were subsequently inspected for cloudiness and pellet formation using a magnifying glass plate reader. The lowest concentration at which no pellet or cloudiness was apparent in a given well was identified as the MIC. […] The plates were incubated overnight at 35° C. and colonies subsequently enumerated. The MBC values were determined as the lowest concentration at which ≧99.9% of inoculated bacteria were killed. All assays were performed in triplicate and the MIC and MBC range reported.

Staphylococcus aureus = test: microbe, parasite or virus in culture; format: cell-based; conditions: ATCC29213; Staphylococcus aureus ATCC 29213; read-out: MIC
Description: as §1

Escherichia coli = test: microbe, parasite or virus in culture; format: cell-based; conditions: Escherichia coli; for MIC: read-out: MIC
Description: as §1

Pseudomonas aeruginosa = test: microbe, parasite or virus in culture; format: cell-based; conditions: Pseudomonas aeruginosa, read-out: MIC
Description: as §1

Serratia marcescens = test: microbe, parasite or virus in culture; format: cell-based; conditions: Serratia marcescens, read-out: MIC
Description: as §1

Klebsiella pneumoniae = test: microbe, parasite or virus in culture; format: cell-based; conditions: Klebsiella pneumoniae, read-out: MIC
Description: as §1

[1] = tested on: bacterial LPS derived from E. coli 0111:B4; test: LPS neutralization, Limulus amebocyte lysate (LAL) assay; format: biochemical; conditions: 1 ng LPS
Description: FIG. 1 depicts the mean (±S.E.) percent neutralization of bacterial LPS bioactivity as determined with the Limulus amebocyte lysate assay. Increasing concentrations of peptides or polymixin B were incubated with 1 ng of E. coli-derived LPS for 30 min. Following incubation, the amount of free LPS was determined by extrapolation from a standard curve and the percent of bound (neutralized) LPS was calculated.
The ability of the peptides to neutralize LPS was determined using a commercially available Limulus amebocyte lysate (LAL) assay (Cambrex BioScience Walkersville, Inc., Walkersville, Md.). As a positive control, polymyxin B (Sigma Chemical Co.) was evaluated in parallel with the peptides. Increasing concentrations of peptides or polymyxin B were incubated with 1 ng of highly purified bacterial LPS (Sigma Chemical Co.), derived from E. coli 0111:B4, in a 500 μl reaction volume of endotoxin-free water for 30 min at 37° C. while shaking at 100 rpm. Following the incubation, the amount of free LPS was determined in each sample according to the manufacturer's instructions. Briefly, 50 μl of the above mixture was placed into a 96-well microtiter plate and the reaction initiated by the addition of an equal volume of amoebocyte lysate. Following an incubation at 37° C. for 10 min, 100 μl of chromogenic substrate was added and the plate incubated for 5-10 min at 37° C. The reaction was stopped by the addition of 50 μl of glacial acetic acid and the absorbance measured at a wavelength of 405 nm on a microplate reader (Biotec Instruments, Inc., Winooski, Vt.). The amount of non-bound LPS was extrapolated from a standard curve and the percent inhibition calculated according to the following formula: […]
To determine whether the bBPI peptides were able to neutralize LPS, increasing concentrations of the peptides were incubated with LPS (1 ng) and the resulting mixture assayed with the LAL assay (FIG. 1). As a positive and negative control, respectively, polymyxin B and a non-BPI-derived peptide were also assayed. […] In contrast, bBPI142-169 and bBPI90-99,148-161 were able to neutralize ≧93% of LPS activity at peptide concentrations of 30 and 100 μg/ml, respectively.

Q: What does the source list for `CN(C)[C@@H]1C(O)=C(C(N)=O)C(=O)[C@@]2(O)C(O)=C3C(=O)c4c(O)cccc4[C@@](C)(O)[C@H]3C[C@@H]12` [Tetracycline, reference compound]?
A: MIC (Enterobacter cloacae; Enterobacter cloacae Isolate #2, read-out: MIC): 4 µg/mL (≈ 9 µM); MIC (Enterobacter cloacae; Enterobacter cloacae Isolate #4): 4 µg/mL (≈ 9 µM); MIC (Staphylococcus aureus): 0.25 to 0.5 µg/mL (≈ 0.563 to 1.13 µM); MBC (Escherichia coli; ATCC25922, Escherichia coli ATCC 25922, read-out: MBC): 64 µg/mL (≈ 144 µM); MIC (Escherichia coli; ATCC25922, Escherichia coli ATCC 25922): 0.5 to 1 µg/mL (≈ 1.13 to 2.25 µM); MIC (Escherichia coli; Escherichia coli Isolate #1): 4 µg/mL (≈ 9 µM); MIC (Escherichia coli; Escherichia coli Isolate #2): 4 µg/mL (≈ 9 µM); MIC (Escherichia coli; Escherichia coli Isolate #3): 4 µg/mL (≈ 9 µM); MIC (Escherichia coli; Escherichia coli Isolate #4): 4 µg/mL (≈ 9 µM); MIC (Escherichia coli; Escherichia coli Isolate #5): 4 µg/mL (≈ 9 µM); MIC (Escherichia coli; Escherichia coli Strain P4): 1 µg/mL (≈ 2.25 µM); MIC (Pseudomonas aeruginosa; Pseudomonas aeruginosa Isolate #1): 32 µg/mL (≈ 72 µM); MIC (Pseudomonas aeruginosa; Pseudomonas aeruginosa Isolate #2): 16 µg/mL (≈ 36 µM); MIC (Pseudomonas aeruginosa; Pseudomonas aeruginosa Isolate #3): 32 µg/mL (≈ 72 µM); MIC (Pseudomonas aeruginosa; Pseudomonas aeruginosa Isolate #4): 16 µg/mL (≈ 36 µM); MIC (Pseudomonas aeruginosa; Pseudomonas aeruginosa Isolate #5): 32 µg/mL (≈ 72 µM); MIC (Pseudomonas aeruginosa; Pseudomonas aeruginosa Isolate #6): 16 µg/mL (≈ 36 µM); MIC (Serratia marcescens; Serratia marcescens Isolate #1): 32 µg/mL (≈ 72 µM); MIC (Serratia marcescens; Serratia marcescens Isolate #2): 64 µg/mL (≈ 144 µM); MIC (Serratia marcescens; Serratia marcescens Isolate #3): 64 µg/mL (≈ 144 µM); MIC (Serratia marcescens; Serratia marcescens Isolate #4): 64 µg/mL (≈ 144 µM); MIC (Serratia marcescens; Serratia marcescens Isolate #5): 64 µg/mL (≈ 144 µM); MIC (Serratia marcescens; Serratia marcescens Isolate #6): 64 µg/mL (≈ 144 µM); MIC (Klebsiella pneumoniae; Klebsiella pneumoniae Isolate #1): 64 µg/mL (≈ 144 µM); MIC (Klebsiella pneumoniae; Klebsiella pneumoniae Isolate #3): 1 µg/mL (≈ 2.25 µM); MIC (Klebsiella pneumoniae; Klebsiella pneumoniae Isolate #4): 64 µg/mL (≈ 144 µM); MIC (Klebsiella pneumoniae; Klebsiella pneumoniae Isolate #5): 16 µg/mL (≈ 36 µM); MIC (Klebsiella pneumoniae; Klebsiella pneumoniae Isolate #6): 0.5 µg/mL (≈ 1.13 µM)

Q: How did the “inhibition of LPS activity” value ([1]; 100 μg/ml, 30 min) turn out when “MCHWAGGASNTGDARGDV FGKQAG (MCHWAGGASNTGDARGDVFGKQAG; listed as Bos sp.) [control peptide, non-BPI-derived control peptide provided by the peptide synthesis company; negative control, reference compound]” was run?
A: Its value is “no inhibitory effect”.

Q: With polymyxin B [reference compound] as the compound, how does the “inhibition of LPS activity (in words)” value ([1]; increasing concentrations) read?
A: Its value is “inhibited LPS activity in dose-dependent manner”.
